# Test results: patent US9090900B2, “Coryneform bacterium transformant and process for producing phenol using the same” (priority 2010, dated 2015)
# Read-outs that look alike come from different tables or passages of the source.
# Columns and labels:
# Escherichia coli JM109 = settings: LB liquid medium, 37° C.
# Procedure: (§1) A growth inhibition test in aerobic culture was performed to examine the influence of phenol on Corynebacterium glutamicum, Escherichia coli, and Pseudomonas putida. Pseudomonas putida S12, which was used for the test, is reported to be a solvent-resistant strain. In the report, disclosed is an unparalleled technology using the strain as a host in phenol production.
# Escherichia coli JM109 was applied to LB agar medium (1% polypeptone, 0.5% yeast extract, 0.5% NaCl and 1.5% agar) and was left stand in the dark at 37° C. for 15 hours.
# An inoculation loop of the Escherichia coli JM109 grown on a plate as above was inoculated into a test tube containing 10 mL of LB liquid medium (1% polypeptone, 0.5% yeast extract, and 0.5% NaCl), and aerobic culture was performed with shaking at 37° C. for 13 hours.
# (§2) The Escherichia coli JM109 grown in the above conditions was inoculated into 100 mL of LB liquid medium in such a way that the initial bacterial cell concentration would be OD610=0.05, phenol was added at the same time in such a way that the final concentration would be 0, 0.16, or 0.20 mM, and aerobic culture was performed with shaking at 37° C. The growth of bacterial cells was determined by absorbance measurement at OD610.
# (§3) The growth of bacterial cells was determined by absorbance measurement at OD610.
# Pseudomonas putida F1 = settings: LB (+glucose) liquid medium, 30° C.
# Procedure: as §1
# (§4) Pseudomonas putida F1 and S12 were applied to LB agar medium (1% polypeptone, 0.5% yeast extract, 0.5% NaCl and 1.5% agar) and were left stand in the dark at 30° C. for 15 hours.
# (§5) An inoculation loop of each of the Pseudomonas putida F1 and S12 grown on a plate as above was inoculated into a test tube containing 10 mL of LB (+glucose) liquid medium (1% polypeptone, 0.5% yeast extract, 0.5% NaCl and 0.4% glucose), and aerobic culture was performed with shaking at 30° C. for 13 hours.
# (§6) The Pseudomonas putida F1 and S12 grown in the above conditions were each inoculated into 100 mL of LB (+glucose) liquid medium in such a way that the initial bacterial cell concentration would be OD610=0.05, phenol was added at the same time in such a way that the final concentration would be 0, 0.10, or 0.20 […], and aerobic culture was performed with shaking at 30° C.
# as §3
# Pseudomonas putida S12 = settings: LB (+glucose) liquid medium, 30° C.
# Procedure: as §1, §4, §5, §6, §3
# [1] = system: Corynebacterium glutamicum R; settings: A liquid medium, 33° C.
# Procedure: as §1
# Corynebacterium glutamicum R was applied to A agar medium (2 g of (NH2)2CO3 7 g of (NH4)2SO4, 0.5 g of KH2PO4, 0.5 g of K2HPO4, 0.5 g of MgSO4.7H2O, 1 mL of 0.06% (w/v) Fe2SO4.7H2O+0.042% (w/v) MnSO4.2H2O, 1 mL of 0.02% (w/v) biotin solution, 2 mL of 0.01% (w/v) thiamin solution, 2 g of yeast extract, 7 g of vitamin assay casamino acid, 40 g of glucose, and 15 g of agar were suspended in 1 L of distilled water) and was left stand in the dark at 33° C. for 15 hours.
# An inoculation loop of the Corynebacterium glutamicum R grown on a plate as above was inoculated into a test tube containing 10 mL of A liquid medium (2 g of (NH2)2CO3 7 g of (NH4)2SO4, 0.5 g of KH2PO4, 0.5 g of K2HPO4, 0.5 g of MgSO4.7H2O, 1 mL of 0.06% (w/v) Fe2SO4.7H2O+0.042% (w/v) MnSO4.2H2O, 1 mL of 0.02% (w/v) biotin solution, 2 mL of 0.01% (w/v) thiamin solution, 2 g of yeast extract, 7 g of vitamin assay casamino acid, and 40 g of glucose were suspended in 1 L of distilled water) and was aerobically cultured with shaking at 33° C. for 13 hours.
# as §2, with “Corynebacterium glutamicum R” for “Escherichia coli JM109”, “A” for “LB”, “0.16, 0.2, 0.24,” for “0.16,”, “0.32” for “0.20”, “33°” for “37°”
# as §3
compound,measurement,setting,value
Oc1ccccc1 [phenol],influence of phenol on aerobic proliferation (OD610),Escherichia coli JM109; 0.16% phenol,significantly affected
same,influence of phenol on aerobic proliferation (OD610),Escherichia coli JM109; 0.20% phenol,completely inhibited
same,influence of phenol on aerobic proliferation (OD610),Pseudomonas putida F1; 0.10% phenol,significantly affected
same,influence of phenol on aerobic proliferation (OD610),Pseudomonas putida F1; 0.20% phenol,completely inhibited
same,influence of phenol on aerobic proliferation (OD610),Pseudomonas putida S12; 0.10% phenol,significantly affected
same,influence of phenol on aerobic proliferation (OD610),Pseudomonas putida S12; 0.20% phenol,completely inhibited
same,influence of phenol on aerobic proliferation (OD610),[1]; 0.16% phenol,hardly affected
same,influence of phenol on aerobic proliferation (OD610),[1]; 0.20% phenol,favorable growth
same,influence of phenol on aerobic proliferation (OD610),[1]; 0.24% phenol,able to proliferate
